Assay results from US8980571B2, “Method of identifying a candidate compound which may inhibit α9-nAchR overexpression or estrogen receptor-dependent transcription in nicotine-derived-compound-induced breast cancer cells” (Taipei Medical University, priority 2011, dated 2015).

What was measured:
ERK1/2 = test: kinase competition assay, p-ERK1/2 immunoblotting in MCF-7 cells; type: cell-based, human; settings: 25 μM pretreatment 30 min, then E2 10 nM 30 min
Procedure: After treatment, the cells were harvested for immunoblotting analysis. The p-ERα, total ER-α, and MAPK kinase proteins levels were detected by immunoblotting analysis.
For the kinase competition assays, the cells were treated with either 10 μM Ly294002, 25 μM PD98059, or 25 μM SP600125 (all from Tocris Cookson Inc., Ellisville, USA) before the treatment with nicotine or E2. All of the cell lines were grown in phenol red-free DMEM for 7 days before the experiments (Lewis, J. S., Thomas, T. J., Pestell, R. G., Albanese, C., Gallo, M. A., and Thomas, T. 2005. Differential effects of 16alpha-hydroxyestrone and 2-methoxyestradiol on cyclin D1 involving the transcription factor ATF-2 in MCF-7 breast cancer cells. J Mol Endocrinol 34:91-105). The DMEM medium used for these experiments contained 10% FBS that had been pretreated with dextran-coated charcoal (0.5% Norit A and 0.05% Dextran T-70) to avoid the effects of serum-derived estrogenic compounds.
Cell extracts were prepared as previously in Ho, Y. S., Lai, C. S., Liu, H. I., Ho, S. Y., Tai, C., Pan, M. H., and Wang, Y. J. 2007. Dihydrolipoic acid inhibits skin tumor promotion through anti-inflammation and anti-oxidation. Biochem Pharmacol 73:1786-1795. Fifty micrograms of protein from each sample were resolved by 12% SDS-polyacrylamide gel electrophoresis, transferred to PVDF and analyzed by western blotting. […]

p-Akt (Ser473) = test: p-Akt immunoblotting analysis in MCF-7 cells; type: cell-based, human
Excerpt: Both p-AKT and total (T)-AKT protein expression were detected by immunoblotting analysis. The membrane was then re-probed with a GAPDH antibody to ensure equal protein loading.
Both p-AKT and T-AKT protein expression were detected by immunoblotting analysis. The membrane was then re-probed with a GAPDH antibody to ensure equal protein loading.
Fifty micrograms of protein from each sample were resolved by 12% SDS-polyacrylamide gel electrophoresis, transferred to PVDF and analyzed by western blotting. The antibodies employed for the western blotting analysis were purchased from the following vendors: anti-Akt, anti-JNK, anti-phospho JNK, anti-estrogen receptor a (anti-ERα), anti-c-Fos, anti-ERK1/2, anti-phospho ERK1/2, and protein A/G agarose beads were purchased from Santa Cruz Biotechnology (Santa Cruz, Calif., USA); anti-GAPDH, anti-α9-nAChR, and anti-phospho ERα (Ser^167) antibodies were obtained from ABcam (Cambridge, UK); anti-phospho Akt (Ser^473, Thr^308), anti-phospho c-Jun (Ser^73), anti-phospho ERα (Ser^118), and anti-phospho ERα (Ser^104/106) antibodies were purchased from Cell Signaling Technology (Danvers, Mass.). Immunodetection was performed by probing membranes with the appropriate dilutions of specific primary antibodies at room temperature for 2 h. The membranes were then incubated at room temperature for 1 h with either alkaline phosphatase-coupled anti-mouse or anti-rabbit secondary antibodies that were purchased from Santa Cruz Biotechnology. The specific protein complexes were identified by incubating the membranes with colorigenic substrates (nitroblue tetrazolium and 5-bromo-4-chloro-3indolyl-phosphate; KPL, Inc., Gaithersburg, Md., USA). In each experiment, the membranes were also probed with an anti-GAPDH antibody as a protein loading control.

α9-nAChR = α9-nAChR mRNA and protein expression by RT-PCR and immunoblotting in MCF-7 cells; type: cell-based, human; settings: nicotine 10 μM, 6 h post-treatment
Procedure: After treatment, the cells were harvested, and α9-nAChR mRNA and protein expression levels were determined by RT-PCR and immunoblotting analyses.
Primers specific for the α9-nAChR subunit (forward: 5′-[sequence]-3 (SEQ ID NO:18)′ and reverse: 5′-[sequence]-3 (SEQ ID NO:19)′) were synthesized by MB Mission BioTech (Taipei, Taiwan). The PCR amplicons were analyzed in 1.2% agarose gels (Amresco, Inc, Solon, Ohio, USA) that were stained with ethidium bromide. […] The α9-nAChR mRNA fluorescence intensity was measured and normalized to GUS expression levels using the built-in Roche LightCycler software (version 4).

α9-nAChR promoter = test: luciferase activity assay, pGL3(α9-nAChR) promoter constructs in MCF-7 cells; type: cell-based, human
Procedure: (§1) Cell lysates were harvested, and relative firefly luciferase activities were measured and normalized to renilla luciferase activities in the same cell lysates. […] The luciferase activity was assayed and normalized to the pRL-TK expression as described above. […] The data were analyzed using nonparametric tests; all P-values are two-sided.
All of the α9-nAChR promoter-luciferase gene fusions were constructed using a pGL3-Basic vector (Promega), and suitable α9 promoter fragments were introduced into the polylinker region of the vector, upstream of the luciferase gene. These constructs were defined as pGL3(α9-nAChR). The fragments were generated using restriction enzymes and were either cloned directly into a pGL3-Basic vector or first subcloned in a pBluescript vector and then transferred into a pGL3-Basic vector.
MCF-7 cells were plated in six-well plates and incubated overnight. The following day, the cells were transiently cotransfected with 2 μg of pGL3 (α9-nAChR) promoter plasmid and 500 ng of RLTK plasmid (Promega, Madison, Wis.) using a MP-100 microporator (Digital Bio, Seoul, Korea) according to the manufacturer's instructions. […] Twenty-four hours later, the cells were lysed with 19 Reporter Lysis Buffer (Promega, Madison, Wis.) and stored at −20° C. overnight. Luciferase activity was then determined by mixing 50 µl of the cell lysate and 50 μl of the Luciferase Assay Reagent (Promega). The total luciferase light units were quantified using a HIDEX Chameleon Microplate Reader. The relative luciferase activity was normalized to that of renilla luciferase in the same cell lysates. Each luciferase assay experiment was performed three times. In this study, the luciferase activity observed in cells transfected with the empty vector was defined as a one-fold change (i.e., basal level).
To more precisely define the regulatory elements that are required by the α9-nAChR promoter for ER-induced transcriptional activation, transient-transfection experiments were conducted using a series of 5′ promoter deletion constructs in pGL3 vectors that were transfected into MCF-7 cells. […]

AP1 DNA-binding sites = settings: nicotine 0.1-10 μM, 6 h, pGL3(AP1)5, MCF-7
Procedure: as §1
MCF-7 cells were plated in six-well plates and incubated overnight. The following day, the cells were transiently cotransfected with 2 μg of pGL3 (α9-nAChR) promoter plasmid and 500 ng of RLTK plasmid (Promega, Madison, Wis.) using a MP-100 microporator (Digital Bio, Seoul, Korea) according to the manufacturer's instructions. […] Twenty-four hours later, the cells were lysed with 19 Reporter Lysis Buffer (Promega, Madison, Wis.) and stored at −20° C. overnight. Luciferase activity was then determined by mixing 50 µl of the cell lysate and 50 μl of the Luciferase Assay Reagent (Promega). The total luciferase light units were quantified using a HIDEX Chameleon Microplate Reader. The relative luciferase activity was normalized to that of renilla luciferase in the same cell lysates. Each luciferase assay experiment was performed three times. In this study, the luciferase activity observed in cells transfected with the empty vector was defined as a one-fold change (i.e., basal level). […]

[1] = cited from earlier work

Row | Structure (SMILES) | effect on E2-induced increase in p-ERK1/2 protein levels (ERK1/2) | effect of combined treatment on E2-induced Akt (Ser473) phosphorylation (p-Akt (Ser473); nicotine 5 μM + E2 5 nM, 15 min, MCF-7) | time to significantly increased p-Akt (Ser473) expression (p-Akt (Ser473); nicotine 10 μM, MCF-7) | p-Akt (Ser473) expression for the duration of the experiment (p-Akt (Ser473); nicotine 10 μM, MCF-7, time course) | minimum concentration required for p-Akt (Ser473) induction (p-Akt (Ser473); within 15 min, MCF-7) | α9-nAChR mRNA and protein expression levels (α9-nAChR) | induced responsiveness of promoter with positions -995 to -260 deleted (α9-nAChR promoter; E2 10 nM or nicotine 10 μM) | nicotine-induced luciferase activity with promoter positions -41 to -1 deleted (α9-nAChR promoter; nicotine 10 μM) | induction of α9-nAChR promoter activity (luciferase), full-length construct (α9-nAChR promoter; nicotine 10 μM, 24 h, empty vector = one-fold) | AP1-linked luciferase activity (AP1 DNA-binding sites) | nicotine absorbed systemically while smoking a cigarette ([1]; in vivo) | nicotine concentration in the gastric juice ([1]; in vivo) | nicotine concentration in the plasma ([1]; in vivo) | nicotine concentration in the saliva ([1]; in vivo) | share of inhaled nicotine absorbed by the body ([1]; studies using 14C-nicotine)
1 | COc1cccc(-c2cc(=O)c3ccccc3o2)c1N [PD98059] | almost completely abolished |  |  |  |  |  |  |  |  |  |  |  |  |  | 
2 | CN1CCCC1c1cccnc1 (stereo not drawn) [nicotine] |  | enhanced | ≤ 10 min | persistent increase | 5 µM | significantly induced | preserved | abolished | greater than fourfold | increased the AP1-linked luciferase activity in a dose-dependent manner | roughly 1.0 mg | > 800 ng/mL | approximately 15 ng/ml | > 1300 ng/mL | 80-90%
